Where a name gives a salt, the structure may show the parent alone. Where only a bound is given, the exact number is not on record here.

One experiment addresses T1, MMP-1 (Homo sapiens, UniProt P03956).
T1 construct: made in house; host or cells: MMP-1-transfected HT-1080 cells (spent media)
T1 sequence (P03956 100-469): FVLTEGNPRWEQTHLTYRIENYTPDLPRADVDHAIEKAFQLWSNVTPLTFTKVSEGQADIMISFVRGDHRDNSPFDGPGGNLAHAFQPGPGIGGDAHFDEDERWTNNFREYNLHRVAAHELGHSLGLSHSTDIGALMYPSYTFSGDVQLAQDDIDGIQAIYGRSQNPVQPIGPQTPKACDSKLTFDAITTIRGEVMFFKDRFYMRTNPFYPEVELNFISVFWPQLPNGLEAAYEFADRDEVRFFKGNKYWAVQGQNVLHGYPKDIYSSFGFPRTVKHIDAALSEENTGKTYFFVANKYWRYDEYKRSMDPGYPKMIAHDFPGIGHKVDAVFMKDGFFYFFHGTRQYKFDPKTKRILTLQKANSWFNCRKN
The experiment in a line: In vitro MMP inhibition, IC50 determination (fluorogenic substrate I). It counts as biochemical. As to conditions: values in parenthesis; 4 μM substrate I; room temperature. The procedure:
Several hydroxamic acids and salts thereof were analyzed in in vitro assays to determine their ability to inhibit the MMP cleavage of peptide substrates. […] and IC50 constants were calculated from the assayed hydroxamic acid-MMP interactions. Human recombinant MMP-1, MMP-2, MMP-9, MMP-13, and MMP-14 were used in this assay. All enzymes were prepared in Assignee's laboratories following usual laboratory procedures. Protocols for the preparation and use of these enzymes are available in the scientific literature. See, e.g., Enzyme Nomenclature (Academic Press, San Diego, Calif., 1992) (and the citations therein). See also, Freije et al., “Molecular cloning and expression of collagenase-3, a novel human matrix metalloproteinase produced by breast carcinomas,” J Biol. Chem., 269(24), 16766-16773 (1994). The MMP-1 proenzyme was purified from the spent media of MMP-1-transfected HT-1080 cells provided by Dr. Harold Welgus of Washington University (St. Louis, Mo.). The protein was purified on a zinc chelating column. All MMPs were activated using 4-aminophenylmercuric acetate (“APMA”, Sigma Chemical, St. Louis, Mo.) or trypsin. MMP-9 also was activated using human recombinant MMP-3 (purified in Assignee's laboratory following standard cloning and purification techniques). […] Substrate (I) was purchased from Baychem (Redwood City, Calif.), and substrate II was prepared Assignee's laboratory. Substrate I was used in the IC50 determination assays, while substrate II was used in the Ki determination assays. In the absence of MMP inhibitory activity, either substrate is cleaved at the Gly-Leu peptide bond. […] The stock solutions of the assayed hydroxamic acids (or salts thereof) were prepared in 1% dimethyl sulfoxide (DMSO). […] The experiment controls contained the same amount of Buffer A/DMSO as the assayed sample, but contained no hydroxamic acid (or salt thereof). The assays from which the IC50 determinations were made were performed as follows. […] Louis, Mo.). The assayed hydroxamic acid samples were incubated in MicrofluorTM White Plates (Dynatech, Chantilly, Va.) and analyzed on a Perkin Elmer […] plate reader (Norwalk, Conn.). The excitation wavelength was 328 nm, and the emission wavelength-415 nm. […] As stated in the previous paragraph, samples containing varying concentrations of the same assayed hydroxamic acid were prepared. Inhibition was measured as a reduction in fluorescent intensity as a function of MMP inhibitor concentration. […] All values in Table 2 are given in nM units. The IC50 measurements are in parenthesis.

For another experiment, the target named is T2, MMP-14 (Homo sapiens, UniProt P50281).
T2 construct: The catalytic domain enzyme was expressed in E. coli inclusion bodies, solubilized in urea; made in house
The description is as above. It is filed as biochemical. As to conditions: values in parenthesis; 4 μM substrate I; room temperature. As to the method:
Several hydroxamic acids and salts thereof were analyzed in in vitro assays to determine their ability to inhibit the MMP cleavage of peptide substrates. […] and IC50 constants were calculated from the assayed hydroxamic acid-MMP interactions. Human recombinant MMP-1, MMP-2, MMP-9, MMP-13, and MMP-14 were used in this assay. All enzymes were prepared in Assignee's laboratories following usual laboratory procedures. Protocols for the preparation and use of these enzymes are available in the scientific literature. See, e.g., Enzyme Nomenclature (Academic Press, San Diego, Calif., 1992) (and the citations therein). See also, Freije et al., “Molecular cloning and expression of collagenase-3, a novel human matrix metalloproteinase produced by breast carcinomas,” J Biol. Chem., 269(24), 16766-16773 (1994). The MMP-14 full length cDNA was provided by Dr. Gregory Goldberg of Washington University (St. Louis, Mo.). The catalytic domain enzyme was expressed in E. coli inclusion bodies, solubilized in urea, purified on a preparative […] reverse phase HPLC column, and then refolded in the presence of zinc acetate and purified for use. All MMPs were activated using 4-aminophenylmercuric acetate (“APMA”, Sigma Chemical, St. Louis, Mo.) or trypsin. MMP-9 also was activated using human recombinant MMP-3 (purified in Assignee's laboratory following standard cloning and purification techniques). […] Substrate (I) was purchased from Baychem (Redwood City, Calif.), and substrate II was prepared Assignee's laboratory. Substrate I was used in the IC50 determination assays, while substrate II was used in the Ki determination assays. In the absence of MMP inhibitory activity, either substrate is cleaved at the Gly-Leu peptide bond. […] The stock solutions of the assayed hydroxamic acids (or salts thereof) were prepared in 1% dimethyl sulfoxide (DMSO). […] The experiment controls contained the same amount of Buffer A/DMSO as the assayed sample, but contained no hydroxamic acid (or salt thereof). The assays from which the IC50 determinations were made were performed as follows. […] Louis, Mo.). The assayed hydroxamic acid samples were incubated in MicrofluorTM White Plates (Dynatech, Chantilly, Va.) and analyzed on a Perkin Elmer […] plate reader (Norwalk, Conn.). The excitation wavelength was 328 nm, and the emission wavelength-415 nm. […] As stated in the previous paragraph, samples containing varying concentrations of the same assayed hydroxamic acid were prepared. Inhibition was measured as a reduction in fluorescent intensity as a function of MMP inhibitor concentration. […] All values in Table 2 are given in nM units. The IC50 measurements are in parenthesis.

A word on the IC50: it is the midpoint of a concentration-inhibition curve. Turning to `CCCCc1ccc(N2CCN(S(=O)(=O)C3(C(=O)NO)CCN(CCOC)CC3)CC2)cc1` [Example 5, 4-{[4-(4-butylphenyl)piperazin-1-yl]sulfonyl}-N-hydroxy-1-(2-methoxyethyl)piperidine-4-carboxamide Dihydrochloride], the IC50 at MMP-1 is more than 10 µM; on MMP-14 it was 4.55 µM.
The corresponding values for `CCCCCc1ccc(N2CCN(S(=O)(=O)C3(C(=O)NO)CCN(CCOC)CC3)CC2)cc1` [Example 6, N-Hydroxy-1-(2-methoxyethyl)-4-{[4-(4-pentylphenyl)piperazin-1-yl]sulfonyl}piperidine-4-carboxamide Dihydrochloride] are more than 10 µM and more than 10 µM.
The corresponding values for `O=C(NO)C1(S(=O)(=O)N2CCN(c3ccc(OCC4CC4)c(F)c3)CC2)CCN(C2CC2)CC1` [Example 10, 1-cyclopropyl-4-[[4-[4-(cyclopropylmethoxy)-3-fluorophenyl]-1-piperazinyl]sulfonyl]-N-hydroxy-4-piperidinecarboxamide, dihydrochloride] are more than 10 µM and 5.82 µM.
The corresponding values for `CCCCOc1ccc(N2CCN(S(=O)(=O)C3(C(=O)NO)CCN(CCOC)CC3)CC2)cc1F` [Example 11, 4-[[4-(4-butoxy-3-fluorophenyl)-1-piperazinyl]sulfonyl]-N-hydroxy-1-(2-methoxyethyl)-4-piperidinecarboxamide, Dihydrochloride] are more than 10 µM and 7.12 µM.
With `CCCCCc1ccc(C2CCN(S(=O)(=O)C3(C(=O)NO)CCN(CCOC)CC3)CC2)cc1` [Example 15, N-hydroxy-1-(2-methoxyethyl)-4-{[4-(4-pentylpheyl)piperidin-1-yl]sulfonyl}piperidine-4-carboxamide Hydrochloride], the IC50 is more than 10 µM on MMP-1 and 6.17 µM at MMP-14.

These data come from patent US20050209278A1, “Piperidinyl- and piperazinyl-sulfonylmethyl hydroxamic acids and their use as protease inhibitors” (priority 2002, published 2005).
